Measurements reported in ChEMBL document CHEMBL5214981, “Thionated aminofluorophthalimides reduce classical markers of cellular inflammation in LPS-challenged RAW 264.7 cells” (Bioorg Med Chem Lett, 2022).

Tests used:
[1] = tested on: RAW264.7; experiment: Cytotoxicity against LPS-activated mouse RAW264.7 cells assessed as reduction in cell viability at 10 uM measured at 24 to 48 hrs by MTS assay relative to control; assay type: toxicity, cell-based; conditions: raw264.7, 10 µM, time 24-48 hrs
[2] = tested on: RAW264.7; experiment: Antiinflammatory activity in LPS-activated mouse RAW264.7 cells assessed as inhibition of TNF-alpha production at 10 uM measured at 24 to 48 hrs after LPS stimulation by ELISA analysis relative to control; assay type: functional; design: scale not given: the % may be the effect or the level left; conditions: time 24-48 hrs
[3] = tested on: RAW264.7; experiment: Antiinflammatory activity in LPS-activated mouse RAW264.7 cells assessed as inhibition of nitrite production at 10 uM measured at 24 to 48 hrs after LPS stimulation by ELISA analysis relative to control; assay type: functional; design: scale not given: the % may be the effect or the level left; conditions: time 24-48 hrs
[4] = Metabolic stability in human liver microsomes assessed as compound remaining at 10 uM using pH 7.4 phosphate buffer incubated for 30 mins in the presence of NADPH regenerating system by LC/MS analysis (reference value: 100%); assay type: ADME, Microsome; conditions: read-out: Stability
[5] = Metabolic stability in human liver microsomes assessed as compound remaining at 10 uM using pH 7.4 phosphate buffer incubated for 60 mins in the presence of NADPH regenerating system by LC/MS analysis (reference value: 100%); assay type: ADME, Microsome; conditions: read-out: Stability
[6] = Metabolic stability in human liver microsomes assessed as compound remaining at 10 uM using pH 7.4 phosphate buffer incubated for 30 mins in the absence of NADPH regenerating system by LC/MS analysis (reference value: 100%); assay type: ADME, Microsome; conditions: read-out: Stability
[7] = Metabolic stability in human liver microsomes assessed as compound remaining at 10 uM using pH 7.4 phosphate buffer incubated for 60 mins in the absence of NADPH regenerating system by LC/MS analysis (reference value: 100%); assay type: ADME, Microsome; conditions: read-out: Stability

remaining at 0.5 h, 10 µM [4] [%] | remaining at 1 h, 10 µM [5] [%] | remaining at 0.5 h, 10 µM [6] [%] | remaining at 1 h, 10 µM [7] [%] | SMILES | Activity [1] [%] | Activity [2] [%] | Activity [3] [%]
– | – | – | – | Nc1ccc(F)c2c1C(=O)N(C1CCC(=S)NC1=O)C2=O (centres undefined) | 112.4 | 107 | 59
– | – | – | – | Nc1ccc(F)c2c1C(=O)N(C1CCC(=O)NC1=O)C2=O (centres undefined) | 100.9 | 98 | 86
64 | 41 | 71 | 46 | Nc1ccc(F)c2c1C(=S)N(C1CCC(=S)NC1=O)C2=O (centres undefined) | 95 | 104.1 | 22
– | – | – | – | CC(C)Nc1ccc(F)c2c1C(=O)N(C1CCC(=S)NC1=O)C2=O (centres undefined) | 112.3 | 94.4 | 74.8
– | – | – | – | O=C1NC(=S)CCC1N1C(=O)c2c(F)ccc([N+](=O)[O-])c2C1=O (centres undefined) | 44.9 | 51.3 | 4.7
– | – | – | – | CC(C)Nc1ccc(F)c2c1C(=S)N(C1CCC(=S)NC1=O)C2=O (centres undefined) | 74.1 | 74.7 | 32.3
– | – | – | – | Nc1c(F)ccc2c1C(=S)N(C1CCC(=S)NC1=O)C2=O (centres undefined) | 92 | 114 | 40
– | – | – | – | CC(C)Nc1ccc(F)c2c1C(=O)N(C1CCC(=O)NC1=O)C2=O (centres undefined) | 99.9 | 87.1 | 110.1
– | – | – | – | O=C1CCC(N2C(=O)c3c(F)ccc([N+](=O)[O-])c3C2=O)C(=O)N1 (centres undefined) | 104.9 | 86 | 56.8
68 | 48 | 71 | 53 | Nc1cccc2c1C(=S)N(C1CCC(=S)NC1=O)C2=O (centres undefined) | 92 | 113 | 43
– | – | – | – | Nc1c(F)ccc2c1C(=O)N(C1CCC(=O)NC1=O)C2=O (centres undefined) | 90 | 93 | 100
– | – | – | – | Nc1cccc2c1C(=O)N(C1CCC(=O)NC1=O)C2=O (centres undefined) [POMALIDOMIDE] | 95 | 95 | 91
